Article PMC11124822, “Discovery and Anticancer Screening of Novel Oxindole-Based Derivative Bearing Pyridyl Group as Potent and Selective Dual FLT3/CDK2 Kinase Inhibitor” (Pharmaceuticals, 2024)

Legend:
CCRF-CEM = test: NCI-60 antiproliferative screen (SRB); type: cell-based, human; settings: Homo sapiens; 10 µM single dose, 48 h; CCRF-CEM (Leukemia); read-out: Growth inhibition (%)
MOLT-4 = test: NCI-60 antiproliferative screen (SRB); type: cell-based; settings: Homo sapiens; 10 µM single dose, 48 h; MOLT-4 (Leukemia); read-out: Growth inhibition (%)
A549/ATCC = test: NCI-60 antiproliferative screen (SRB); type: cell-based, human; settings: Homo sapiens; 10 µM single dose, 48 h; A549/ATCC (NSCLC); read-out: Growth inhibition (%)
EKVX = test: NCI-60 antiproliferative screen (SRB); type: cell-based, human; settings: Homo sapiens; 10 µM single dose, 48 h; EKVX (NSCLC); read-out: Growth inhibition (%)
HOP-62 = test: NCI-60 antiproliferative screen (SRB); type: cell-based, human; settings: Homo sapiens; 10 µM single dose, 48 h; HOP-62 (NSCLC); read-out: Growth inhibition (%)
HOP-92 = test: NCI-60 antiproliferative screen (SRB); type: cell-based, human; settings: Homo sapiens; 10 µM single dose, 48 h; HOP-92 (NSCLC); read-out: Growth inhibition (%)
NCI-H226 = test: NCI-60 antiproliferative screen (SRB); type: cell-based, human; settings: Homo sapiens; 10 µM single dose, 48 h; NCI-H226 (NSCLC); read-out: Growth inhibition (%)
HCT-116 = test: NCI-60 antiproliferative screen (SRB); type: cell-based, human; settings: Homo sapiens; 10 µM single dose, 48 h; HCT-116 (Colon); read-out: Growth inhibition (%)
HT29 = test: NCI-60 antiproliferative screen (SRB); type: cell-based, human; settings: Homo sapiens, HT-29; 10 µM single dose, 48 h; HT29 (Colon); read-out: Growth inhibition (%)
KM12 = test: NCI-60 antiproliferative screen (SRB); type: cell-based, human; settings: Homo sapiens; 10 µM single dose, 48 h; KM12 (Colon); read-out: Growth inhibition (%)
SF-295 = test: NCI-60 antiproliferative screen (SRB); type: cell-based, human; settings: Homo sapiens; 10 µM single dose, 48 h; SF-295 (CNS); read-out: Growth inhibition (%)
SNB-19 = test: NCI-60 antiproliferative screen (SRB); type: cell-based, human; settings: Homo sapiens; 10 µM single dose, 48 h; SNB-19 (CNS); read-out: Growth inhibition (%)
U251 = test: NCI-60 antiproliferative screen (SRB); type: cell-based, human; settings: Homo sapiens, U-251; 10 µM single dose, 48 h; U251 (CNS); read-out: Growth inhibition (%)
LOX IMVI = test: NCI-60 antiproliferative screen (SRB); type: cell-based, human; settings: Homo sapiens; 10 µM single dose, 48 h; LOX IMVI (Melanoma); read-out: Growth inhibition (%)
SK-MEL-28 = test: NCI-60 antiproliferative screen (SRB); type: cell-based, human; settings: Homo sapiens; 10 µM single dose, 48 h; SK-MEL-28 (Melanoma); read-out: Growth inhibition (%)
SK-MEL-5 = test: NCI-60 antiproliferative screen (SRB); type: cell-based, human; settings: Homo sapiens; 10 µM single dose, 48 h; SK-MEL-5 (Melanoma); read-out: Growth inhibition (%)
IGROV1 = test: NCI-60 antiproliferative screen (SRB); type: cell-based, human; settings: Homo sapiens, IGROV-1; 10 µM single dose, 48 h; IGROV1 (Ovarian); read-out: Growth inhibition (%)
OVCAR-8 = test: NCI-60 antiproliferative screen (SRB); type: cell-based, human; settings: Homo sapiens; 10 µM single dose, 48 h; OVCAR-8 (Ovarian); read-out: Growth inhibition (%)
SK-OV-3 = test: NCI-60 antiproliferative screen (SRB); type: cell-based, human; settings: Homo sapiens; 10 µM single dose, 48 h; SK-OV-3 (Ovarian); read-out: Growth inhibition (%)
CAKI-1 = test: NCI-60 antiproliferative screen (SRB); type: cell-based, human; settings: Homo sapiens; 10 µM single dose, 48 h; CAKI-1 (Renal); read-out: Growth inhibition (%)
RXF 393 = test: NCI-60 antiproliferative screen (SRB); type: cell-based, human; settings: Homo sapiens; 10 µM single dose, 48 h; RXF 393 (Renal); read-out: Growth inhibition (%)
SN12C = test: NCI-60 antiproliferative screen (SRB); type: cell-based, human; settings: Homo sapiens; 10 µM single dose, 48 h; SN12C (Renal); read-out: Growth inhibition (%)
TK-10 = test: NCI-60 antiproliferative screen (SRB); type: cell-based, human; settings: Homo sapiens; 10 µM single dose, 48 h; TK-10 (Renal); read-out: Growth inhibition (%)
PC-3 = test: NCI-60 antiproliferative screen (SRB); type: cell-based, human; settings: Homo sapiens; 10 µM single dose, 48 h; PC-3 (Prostate); read-out: Growth inhibition (%)
MDA-MB-231 = test: NCI-60 antiproliferative screen (SRB); type: cell-based, human; settings: Homo sapiens; 10 µM single dose, 48 h; MDA-MB-231 (Breast); read-out: Growth inhibition (%)
T-47D = test: NCI-60 antiproliferative screen (SRB); type: cell-based, human; settings: Homo sapiens, T47D; 10 µM single dose, 48 h; T-47D (Breast); read-out: Growth inhibition (%)
MDA-MB-468 = test: NCI-60 antiproliferative screen (SRB); type: cell-based, human; settings: Homo sapiens; 10 µM single dose, 48 h; MDA-MB-468 (Breast); read-out: Growth inhibition (%)
[1] = system: NCI-60 human cancer cell lines; test: NCI-60 screen, full panel summary; type: cell-based; settings: 10 µM single dose; for Mean Growth Percent: all NCI-60 cell lines
Description: In a comprehensive test, compounds were assayed at a single dose concentration (10^−5 M) in the full panel of NCI-60 cancer cell lines.

SMILES | inhibition at 10 µM (CCRF-CEM) [%] | inhibition at 10 µM (MOLT-4) [%] | inhibition at 10 µM (A549/ATCC) [%] | inhibition at 10 µM (EKVX) [%] | inhibition at 10 µM (HOP-62) [%] | inhibition at 10 µM (HOP-92) [%] | inhibition at 10 µM (NCI-H226) [%] | inhibition at 10 µM (HCT-116) [%] | inhibition at 10 µM (HT29) [%] | inhibition at 10 µM (KM12) [%] | inhibition at 10 µM (SF-295) [%] | inhibition at 10 µM (SNB-19) [%] | inhibition at 10 µM (U251) [%] | inhibition at 10 µM (LOX IMVI) [%] | inhibition at 10 µM (SK-MEL-28) [%] | inhibition at 10 µM (SK-MEL-5) [%] | inhibition at 10 µM (IGROV1) [%] | inhibition at 10 µM (OVCAR-8) [%] | inhibition at 10 µM (SK-OV-3) [%] | inhibition at 10 µM (CAKI-1) [%] | also measured
O=C1Nc2ccc(Cl)cc2C1=Cc1ccc(OCc2ccncc2)cc1 (mixture of isomers) [Compound 5o, (E/Z)-5-Chloro-3-[4-(pyridin-4-ylmethoxy)benzylidene] indolin-2-one] | 53.9 | 81.2 | 39.9 | 37.6 | 19.7 | 16.3 | 38.3 | 60.5 | 39.7 | 60.6 | 44.2 | 73.8 | 66.9 | 58.7 | 14.5 | 62.6 | 84.7 | 61.5 | 11.4 | 38.7 | inhibition at 10 µM (RXF 393): 73.8%; inhibition at 10 µM (SN12C): 34.4%; inhibition at 10 µM (TK-10): 17.7%; inhibition at 10 µM (PC-3): 52.4%; inhibition at 10 µM (MDA-MB-231): 24.9%; inhibition at 10 µM (T-47D): 61%; inhibition at 10 µM (MDA-MB-468): 44.9%; Positive Cytostatic Effect (cell lines with percent growth from 0 to 50 / total number of cell lines) [1]: 28/59; Positive Cytotoxic Effect (cell lines with percent growth of <0 / total number of cell lines) [1]: 0/59; Sensitive/Total Cell Lines [1]: 28/59; The Most Sensitive Cell Line [1]: MCF7; number of cell lines with cytostatic effects [1]: 28; Mean Growth Percent [1]: 47.19; melting point: 238 to 240 °C
O=C1Nc2ccc(F)cc2C1=Cc1ccc(OCc2ccccn2)cc1 (mixture of isomers) [Compound 5f, (E/Z)-5-fluoro-3-[4-(pyridin-2-ylmethoxy)benzylidene]indolin-2-one] | 5.79 | 3.55 | -1.04 | 15.8 | -7.71 | 32.9 | 6.67 | 57.8 | -0.51 | 18.8 | 1.98 | 12.9 | 41.8 | 12.6 | -8.53 | -5.85 | 6.35 | 3.52 | 3.75 | 33.5 | inhibition at 10 µM (RXF 393): 24.2%; inhibition at 10 µM (SN12C): 4.04%; inhibition at 10 µM (TK-10): 4.47%; inhibition at 10 µM (PC-3): 8.7%; inhibition at 10 µM (MDA-MB-231): 14.9%; inhibition at 10 µM (T-47D): 60.7%; inhibition at 10 µM (MDA-MB-468): 28.2%; Positive Cytostatic Effect (cell lines with percent growth from 0 to 50 / total number of cell lines) [1]: 3/59; Positive Cytotoxic Effect (cell lines with percent growth of <0 / total number of cell lines) [1]: 0/59; Sensitive/Total Cell Lines [1]: 3/59; The Most Sensitive Cell Line [1]: NCI-H522; Mean Growth Percent [1]: 13.74; melting point: 226 to 228 °C
